Data set [1] concerns CaCo-2 monolayer. The data set is described as follows: TEER assay, CaCo-2 monolayer cocultured with P. aeruginosa. It counts as cell-based, human. The conditions noted are these: P. aeruginosa coculture, 6 h, n = 3.
Data set [2] concerns S. enterica. The data set can be described thus: Bacterial growth in conditioned medium. In kind it is cell-based, Salmonella enterica.
Data set [3] has as its system S. typhimurium. The data set can be described thus: Intracellular infection assay. It counts as cell-based, S. typhimurium SL1344 in A549 cells. The following applies: A549 cells expressing dTAG–PPP1CB pre-incubated 1 h with dTAG^V-1.
Data set [4] deals with M. luteus. The data set can be described thus: Intracellular infection assay. It counts as cell-based, M. luteus in A549 cells. The following applies: A549 cells expressing dTAG–PPP1CB pre-incubated 1 h with dTAG^V-1.

Each structure is given as a SMILES string. Peptide text beside a SMILES is read from it.

As for `CC[C@H](C)[C@H](NC(=O)[C@H](CC(N)=O)NC(=O)[C@H](Cc1ccccc1)NC(=O)[C@H](CCCNC(=N)N)NC(=O)[C@H](CCCNC(=N)N)NC(=O)[C@@H](N)CCCCN)C(=O)N[C@@H](CCCCN)C(=O)N[C@@H](CC(C)C)C(=O)N[C@@H](Cc1c[nH]c2ccccc12)C(=O)N[C@@H](CCCCN)C(=O)N[C@H](C(=O)N[C@@H](Cc1ccccc1)C(=O)O)[C@@H](C)O` [PPP1CB] (H-KRRFNIKLWKTF-OH), the “disruption of CaCo-2 barrier integrity by P. aeruginosa (TEER barrier index)” value in data set [1] was “fully abolished”.
Turning to `CC(=O)N[C@@H](CC(C)C)C(=O)N[C@@H](CC(C)C)C(=O)N[C@H](C=O)CCCNC(=N)N` [leupeptin], the “bacterial growth in conditioned medium” value in data set [2] (medium from cells treated with leupeptin 20 µM for 6 h) is on record as “increase in bacterial growth”.
For the compound `CC[C@H](C(=O)N1CCCC[C@H]1C(=O)O[C@H](CCc1ccc(OC)c(OC)c1)c1ccccc1OCC(=O)NCCCCCCC(=O)N[C@H](C(=O)N1C[C@H](O)C[C@H]1C(=O)N[C@@H](C)c1ccc(-c2scnc2C)cc1)C(C)(C)C)c1cc(OC)c(OC)c(OC)c1` [dTAG^V-1], the “reduction of bacterial growth in conditioned medium” value in data set [2] (A549 cells expressing dTAG–PPP1CB, 500 nM dTAG^V-1 for 6 h vs DMSO) was found to be 20%. For the same compound, in data set [3], the “intracellular bacterial infection (CFU counts, imaging)” value was “attenuated intracellular bacterial infection significantly”. In data set [4], the “intracellular bacterial infection (CFU counts)” value is “attenuated intracellular bacterial infection significantly”.

Values taken from paper PMC11946893 (Nature, 2025).
